Data: ChEMBL document CHEMBL1139353, “Discovery of a new class of potential multifunctional atypical antipsychotic agents targeting dopamine D3 and serotonin 5-HT1A and 5-HT2A receptors: design, synthesis, and effects on behavior” (J Med Chem, 2009)
The source made the active and inactive calls. The rule behind the calls is not given here.

Columns and labels:
[1] = system: Mus musculus; assay: Sedative activity in NMRI mouse assessed as reduction in spontaneous locomotor activity at 10 mg/kg administered 30 mins prior to testing relative to control; assay type: organism-based; parameters: dose 10 mg/kg; conditions: in vivo, 0.5 h
[2] = system: Mus musculus; assay: Antipsychotic activity in NMRI mouse assessed as reduction in methamphetamine-induced locomotor activity at 3 mg/kg administered 30 mins prior to testing measured for 60 mins relative to control; assay type: functional, organism-based; parameters: dose 3 mg/kg
[3] = system: Mus musculus; assay: Antipsychotic activity in NMRI mouse assessed as reduction in methamphetamine-induced locomotor activity at 10 mg/kg administered 30 mins prior to testing measured for 60 mins relative to control; assay type: functional, organism-based; parameters: dose 10 mg/kg
[4] = system: Mus musculus; assay: Antipsychotic activity in NMRI mouse assessed as reduction in phencyclidine-induced locomotor activity at 10 mg/kg administered 30 mins prior to testing measured for 60 mins; assay type: functional, organism-based; parameters: dose 10 mg/kg
[5] = system: Rattus norvegicus; assay: Induction of c-Fos protein expression in rat nucleus accumbens core subregion at 3 mg/kg, ip after 1 hr by light microscopy; assay type: functional, organism-based; parameters: dose 3 mg/kg
[6] = system: Rattus norvegicus; assay: Induction of c-Fos protein expression in rat nucleus accumbens core subregion at 10 mg/kg, ip after 1 hr by light microscopy; assay type: functional, organism-based; parameters: dose 10 mg/kg
[7] = system: Rattus norvegicus; assay: Induction of c-Fos protein expression in rat dorsolateral striatum at 30 mg/kg, ip after 1 hr by light microscopy; assay type: functional, organism-based; parameters: dose 30 mg/kg
[8] = system: Rattus norvegicus; assay: Induction of c-Fos protein expression in ip dosed rat dorsolateral striatum after 1 hr by light microscopy; assay type: functional, organism-based
[9] = Displacement of [3H]idazoxan from imidazole I2 receptor in rabbit kidney by filtration technique; parameters: species or system Oryctolagus cuniculus
[10] = molecular target: T1, Adrenergic receptor alpha-2 (Rattus norvegicus, UniProt P22086+P19328+P22909); assay: Displacement of [3H]clonidine from adrenergic alpha2 receptor in rat cerebral cortex by filtration technique; assay type: tissue-based
T1 sequence (P22086 whole entry): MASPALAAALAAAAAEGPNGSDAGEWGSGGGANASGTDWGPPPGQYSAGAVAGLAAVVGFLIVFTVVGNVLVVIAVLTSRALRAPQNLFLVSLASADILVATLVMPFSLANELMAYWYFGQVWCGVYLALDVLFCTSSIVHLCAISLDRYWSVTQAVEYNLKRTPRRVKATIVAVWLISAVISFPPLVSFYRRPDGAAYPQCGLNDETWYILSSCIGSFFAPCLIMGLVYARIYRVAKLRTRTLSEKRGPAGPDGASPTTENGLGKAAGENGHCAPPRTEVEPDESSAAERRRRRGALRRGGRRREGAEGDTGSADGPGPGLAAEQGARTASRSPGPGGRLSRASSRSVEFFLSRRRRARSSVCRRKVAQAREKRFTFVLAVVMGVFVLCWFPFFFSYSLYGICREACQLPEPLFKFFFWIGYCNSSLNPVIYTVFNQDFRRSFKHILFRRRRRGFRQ
T1 sequence (P19328 whole entry): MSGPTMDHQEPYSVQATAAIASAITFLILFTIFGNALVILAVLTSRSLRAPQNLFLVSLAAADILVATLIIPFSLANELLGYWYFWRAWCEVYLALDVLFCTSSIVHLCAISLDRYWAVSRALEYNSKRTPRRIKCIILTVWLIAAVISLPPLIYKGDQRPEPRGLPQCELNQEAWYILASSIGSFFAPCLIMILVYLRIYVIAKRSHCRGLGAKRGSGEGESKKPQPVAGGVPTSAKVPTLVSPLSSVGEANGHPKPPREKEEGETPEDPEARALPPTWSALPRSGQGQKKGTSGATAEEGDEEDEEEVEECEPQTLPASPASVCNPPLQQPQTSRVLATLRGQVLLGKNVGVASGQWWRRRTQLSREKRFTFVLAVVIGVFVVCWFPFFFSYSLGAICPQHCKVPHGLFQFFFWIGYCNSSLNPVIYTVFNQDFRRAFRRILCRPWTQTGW
T1 sequence (P22909 whole entry): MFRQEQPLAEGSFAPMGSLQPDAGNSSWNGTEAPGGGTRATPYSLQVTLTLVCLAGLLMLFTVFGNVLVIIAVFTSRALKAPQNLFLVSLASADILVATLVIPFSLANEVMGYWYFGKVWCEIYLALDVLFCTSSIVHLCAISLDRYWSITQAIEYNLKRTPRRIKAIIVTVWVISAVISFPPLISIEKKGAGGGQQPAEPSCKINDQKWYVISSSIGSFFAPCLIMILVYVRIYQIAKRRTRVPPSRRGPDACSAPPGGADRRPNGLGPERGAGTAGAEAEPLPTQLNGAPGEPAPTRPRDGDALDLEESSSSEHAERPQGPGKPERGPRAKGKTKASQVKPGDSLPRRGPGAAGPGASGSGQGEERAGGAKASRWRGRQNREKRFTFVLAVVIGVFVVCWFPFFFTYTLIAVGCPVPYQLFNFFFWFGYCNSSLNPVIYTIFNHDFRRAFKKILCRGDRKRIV

[11] = molecular target: T2, D(3) dopamine receptor (Homo sapiens, UniProt P35462); assay: Antagonist activity at human dopamine D3 receptor expressed in CHO-K1 cells by [35S]GTPgammaS binding assay; assay type: functional, cell-based
[12] = Intrinsic activity at 5HT1A receptor in Duncan Hartley guinea pig ileum; assay type: tissue-based; conditions: Cavia porcellus
[13] = molecular target: T3, 5-hydroxytryptamine receptor 2A (Rattus norvegicus, UniProt P14842); assay: Intrinsic activity at 5HT2A receptor in Wistar rat aorta; assay type: tissue-based
[14] = molecular target: D(1A) dopamine receptor (Rattus norvegicus, UniProt P18901)
Description: Displacement of [3H]SCH23390 from dopamine D1 receptor in CRL:CD(SD)BR-COBS rat striatum by scintillation spectrometry

[15] = molecular target: T3, 5-hydroxytryptamine receptor 2A
Description: Displacement of [3H]ketanserin from 5HT2A receptor in CRL:CD(SD)BR-COBS rat cortex by scintillation spectrometry

[16] = organism: Mus musculus; conditions: in vivo, sc, 1 h
Description: Toxicity in sc dosed NMRI mouse assessed as cataleptogenic potential administered 30 mins prior to testing measured every 15 mins for 60 mins by horizontal bar test

[17] = molecular target: T2, D(3) dopamine receptor; assay: biochemical
Description: Displacement of [3H]7OH-DPAT from dopamine D3 receptor expressed in Sf9 cells by scintillation spectrometry

[18] = molecular target: T4, 5-hydroxytryptamine receptor 1A (Rattus norvegicus, UniProt P19327); assay: biochemical
T4 sequence (P19327 whole entry): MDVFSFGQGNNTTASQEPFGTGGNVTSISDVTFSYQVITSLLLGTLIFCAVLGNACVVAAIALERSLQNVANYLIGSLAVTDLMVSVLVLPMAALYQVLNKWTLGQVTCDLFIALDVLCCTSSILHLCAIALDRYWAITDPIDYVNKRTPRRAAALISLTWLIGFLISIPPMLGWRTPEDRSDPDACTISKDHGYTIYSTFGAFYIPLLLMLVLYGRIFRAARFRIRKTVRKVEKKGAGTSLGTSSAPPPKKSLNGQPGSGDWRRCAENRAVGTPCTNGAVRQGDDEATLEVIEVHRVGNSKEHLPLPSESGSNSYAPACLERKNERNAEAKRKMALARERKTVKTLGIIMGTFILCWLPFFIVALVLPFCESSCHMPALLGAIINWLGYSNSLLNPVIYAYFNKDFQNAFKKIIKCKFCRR
Description: Displacement of [3H]8OH-DPAT from 5HT1A receptor in CRL:CD(SD)BR-COBS rat hippocampus by scintillation spectrometry

[19] = system: Mus musculus; conditions: NMRI
Description: Antipsychotic activity in NMRI mouse assessed as reduction in phencyclidine-induced locomotor activity administered 30 mins prior to testing measured for 60 mins

[20] = system: Mus musculus; conditions: NMRI; remark: listed apart in the source
Description: Antipsychotic activity in NMRI mouse assessed as reduction in methamphetamine-induced locomotor activity administered 30 mins prior to testing measured for 60 mins

T2 sequence (P35462 whole entry): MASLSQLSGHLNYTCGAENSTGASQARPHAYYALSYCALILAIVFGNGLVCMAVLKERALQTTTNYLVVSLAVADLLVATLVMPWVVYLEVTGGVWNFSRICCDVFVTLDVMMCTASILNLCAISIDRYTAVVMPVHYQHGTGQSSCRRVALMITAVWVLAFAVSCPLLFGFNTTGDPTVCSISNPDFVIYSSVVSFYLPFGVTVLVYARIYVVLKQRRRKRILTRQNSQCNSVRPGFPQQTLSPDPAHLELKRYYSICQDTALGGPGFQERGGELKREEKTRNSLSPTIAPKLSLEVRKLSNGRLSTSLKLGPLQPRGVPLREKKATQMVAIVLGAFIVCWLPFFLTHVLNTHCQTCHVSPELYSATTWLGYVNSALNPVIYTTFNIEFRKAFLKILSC
T3 sequence (P14842 whole entry): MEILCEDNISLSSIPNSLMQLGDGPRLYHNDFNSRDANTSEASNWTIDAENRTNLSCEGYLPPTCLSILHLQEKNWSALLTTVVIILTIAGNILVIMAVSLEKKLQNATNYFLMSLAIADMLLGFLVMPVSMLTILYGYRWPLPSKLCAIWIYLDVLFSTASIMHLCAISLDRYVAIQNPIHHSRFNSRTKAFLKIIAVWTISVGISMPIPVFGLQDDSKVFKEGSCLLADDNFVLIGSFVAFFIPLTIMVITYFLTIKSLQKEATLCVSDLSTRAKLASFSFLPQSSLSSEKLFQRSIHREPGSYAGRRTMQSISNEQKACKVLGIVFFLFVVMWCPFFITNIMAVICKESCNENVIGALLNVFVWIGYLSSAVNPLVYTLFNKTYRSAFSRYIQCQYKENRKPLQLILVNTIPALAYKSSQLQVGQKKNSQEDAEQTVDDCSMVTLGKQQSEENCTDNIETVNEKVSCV
D(1A) dopamine receptor, sequence (P18901 whole entry): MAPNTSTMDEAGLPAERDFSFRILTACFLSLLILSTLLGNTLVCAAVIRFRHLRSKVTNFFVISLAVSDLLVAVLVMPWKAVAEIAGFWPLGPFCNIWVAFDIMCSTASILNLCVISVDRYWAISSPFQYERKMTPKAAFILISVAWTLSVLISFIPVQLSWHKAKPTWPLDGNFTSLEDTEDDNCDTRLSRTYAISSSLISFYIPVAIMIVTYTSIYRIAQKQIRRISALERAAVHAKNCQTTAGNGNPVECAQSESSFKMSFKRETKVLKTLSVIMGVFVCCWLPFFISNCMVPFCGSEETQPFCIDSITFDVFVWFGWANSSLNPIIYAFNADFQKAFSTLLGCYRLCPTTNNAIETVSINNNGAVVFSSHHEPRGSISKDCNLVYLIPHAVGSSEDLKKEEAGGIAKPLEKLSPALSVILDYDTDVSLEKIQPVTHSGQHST

SMILES: Cc1cccc(N2CCN(CCCCNC(=O)c3cc4ccccc4o3)CC2)c1
- Activity [1]: Toxic
- Activity [2]: Active
- Activity [3]: Active
- Activity [4]: Active
- Activity [5]: inactive
- Activity [6]: Active
- Activity [7]: Active
- Activity [8]: Dose-dependent effect
- Ki [9]: 138 nM
- Ki [10]: 43 nM
- IC50 [11]: 143 nM
- IC50 [12]: 180 nM
- IC50 [13]: 230 nM
- Ki [14]: 3290 nM
- Ki [15]: 15.3 nM
- ED50 [16]: > 30 mg/kg
- Ki [17]: 4.5 nM
- Ki [18]: 11.9 nM
- Activity [19]: Dose-dependent effect
- Activity [20]: Dose-dependent effect
